Consider 15 compounds from ChEMBL document CHEMBL1155421, “Evaluation of a 4-aminopiperidine replacement in several series of CCR5 antagonists” (Bioorg Med Chem Lett, 2010).

The subject of test [1] is Human immunodeficiency virus 1. Kind of test: Antiviral activity against HIV1 NLBal infected JC53BL cells assessed as inhibition of replication by luciferase reporter assay. The class given is functional, organism-based. The following applies: Human immunodeficiency virus 1, NLBal. (In general: A reporter such as luciferase makes a cellular process visible.)
Test [2] has as its target C-C chemokine receptor type 5 (Homo sapiens, UniProt P51681). In words: Displacement of […] from CCR5 receptor receptors expressed in CHO cells. The format is cell-based.

By IC50 is commonly meant the concentration that gives 50% inhibition.

Chain of C-C chemokine receptor type 5 (P51681 whole entry): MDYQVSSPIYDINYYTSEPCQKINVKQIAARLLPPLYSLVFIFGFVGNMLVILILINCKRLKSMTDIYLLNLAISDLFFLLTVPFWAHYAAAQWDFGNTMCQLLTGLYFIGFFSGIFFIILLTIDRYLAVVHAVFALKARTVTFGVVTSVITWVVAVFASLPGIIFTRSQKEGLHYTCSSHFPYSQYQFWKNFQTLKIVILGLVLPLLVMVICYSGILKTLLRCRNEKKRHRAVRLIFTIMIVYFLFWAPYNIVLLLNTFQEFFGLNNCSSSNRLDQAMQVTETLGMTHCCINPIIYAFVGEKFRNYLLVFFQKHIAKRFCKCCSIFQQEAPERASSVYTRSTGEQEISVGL

With `COC[C@@H](c1ccc(C(F)(F)F)cc1)N1CCN(C2C[C@@H]3CN(C(=O)c4c(C)ccnc4C)C[C@@H]3C2)C[C@@H]1C` (some centres undefined), the IC50 is > 625 nM in test [1] and > 500 nM in test [2].

For `COC[C@@H](c1ccc(C(F)(F)F)cc1)N1CCN(C2C[C@@H]3CN(C(=O)c4c(C)ncnc4C)C[C@@H]3C2)C[C@@H]1C` (some centres undefined), the IC50 in test [1] is > 625 nM; in test [2] it was > 500 nM.

In the case of `CCCC[C@H]1CN(CC2CCOCC2)C(=O)OC12CCN(C1C[C@@H]3CN(C(=O)c4c(C)ncnc4C)C[C@@H]3C1)CC2` (some centres undefined), the IC50 turned out to be 262 nM in test [1] and 14 nM in test [2].

Regarding `CCCC[C@H]1CN(C[C@H]2CC[C@H](OC(C)C)CC2)C(=O)OC12CCN(C1C[C@@H]3CN(C(=O)c4c(C)ncnc4C)C[C@@H]3C1)CC2` (some centres undefined), the figures for the 50% inhibitory concentration (IC50) in test [1] and in test [2] were 12 nM and 23 nM, respectively.

In the case of `CCCC[C@H]1CN(C[C@H]2CC[C@H](OCC)CC2)C(=O)OC12CCN(C1C[C@@H]3CN(C(=O)c4c(C)ccnc4C)C[C@@H]3C1)CC2` (some centres undefined), the IC50 was 4 nM in test [1] and 34 nM in test [2].

In the case of `COC[C@@H](c1ccc(C(F)(F)F)cc1)N1CCN(C2C[C@@H]3CN(C(=O)c4c(C)cc(C#N)nc4C)C[C@@H]3C2)C[C@@H]1C` (some centres undefined), the IC50 in test [1] was > 625 nM; in test [2] it was > 500 nM.

`CCO[C@H]1Cc2cc(C(F)(F)F)ccc2[C@@H]1N1CCN(C2C[C@@H]3CN(C(=O)c4c(C)cc(C#N)nc4C)C[C@@H]3C2)C[C@@H]1C` (some centres undefined): the values for the IC50 in test [1] and in test [2] were 59 nM and 45 nM, respectively.

Regarding `CCCC[C@H]1CN(CC2CCOCC2)C(=O)OC12CCN(C1(C)CCN(C(=O)c3c(C)ncnc3C)CC1)CC2`, the IC50 in test [2] was determined as 4 nM.

Turning to `CCO[C@H]1Cc2cc(C(F)(F)F)ccc2[C@@H]1N1CCN(C2C[C@@H]3CN(C(=O)c4c(C)ccnc4C)C[C@@H]3C2)C[C@@H]1C` (some centres undefined), the IC50 amounted to 357 nM in test [1] and 98 nM in test [2].

With `CCCC[C@H]1CN(CC2CCOCC2)C(=O)OC12CCN(C1C[C@@H]3CN(C(=O)c4c(C)cc(C#N)nc4C)C[C@@H]3C1)CC2` (some centres undefined), the results for the half-maximal inhibitory concentration (IC50) in test [1] and in test [2] were 9 nM and 15 nM, respectively.

For the compound `CCO[C@H]1Cc2cc(C(F)(F)F)ccc2[C@@H]1N1CCN(C2C[C@@H]3CN(C(=O)c4c(C)ncnc4C)C[C@@H]3C2)C[C@@H]1C` (some centres undefined), the IC50 in test [1] is > 625 nM; in test [2], 92 nM.

Take `CCCC[C@H]1CN(CC2CCOCC2)C(=O)OC12CCN(C1(C)C[C@H]3CN(C(=O)c4c(C)cc(C#N)nc4C)C[C@H]3C1)CC2` (some centres undefined): the IC50 in test [1] worked out at 18 nM; in test [2] it was 61 nM.

For `CCCC[C@H]1CN(C[C@H]2CC[C@H](OC3CC3)CC2)C(=O)OC12CCN(C1C[C@@H]3CN(C(=O)c4c(C)ncnc4C)C[C@@H]3C1)CC2` (some centres undefined), the figures for the IC50 in test [1] and in test [2] were 12 nM and 27 nM, respectively.

For `CCCC[C@H]1CN(C[C@H]2CC[C@H](OCC)CC2)C(=O)OC12CCN(C1C[C@@H]3CN(C(=O)c4c(C)ncnc4C)C[C@@H]3C1)CC2` (some centres undefined), the IC50 in test [1] came to 19 nM; in test [2] it was 44 nM.

For `CCCC[C@H]1CN(CC2CCOCC2)C(=O)OC12CCN(C1(C)C[C@H]3CN(C(=O)c4c(C)ncnc4C)C[C@H]3C1)CC2` (some centres undefined), the IC50 was ≥ 625 nM in test [1] and 25 nM in test [2].
